In patent publication US20240239752A1, “BICYCLIC HETEROAROMATIC INHIBITORS OF KLK5” (BioCryst Pharmaceuticals, Inc., priority 2021, published 2024):

The compounds below were run against T1, recombinant human KLK5 (Homo sapiens, UniProt Q9Y337) (assay: Kallikrein (KLK) 5 enzymatic assay (Boc-VPR-AMC fluorogenic substrate)). Conditions: recombinant human KLK5 0.1 μg/well, Boc-VPR-AMC 100 μM, pH 7.5, room temperature, 1% DMSO; tested a minimum of three times.
T1 construct: purchased Novoprotein or R&D Systems C415 or 1108-SE
T1 sequence (Q9Y337 23-293): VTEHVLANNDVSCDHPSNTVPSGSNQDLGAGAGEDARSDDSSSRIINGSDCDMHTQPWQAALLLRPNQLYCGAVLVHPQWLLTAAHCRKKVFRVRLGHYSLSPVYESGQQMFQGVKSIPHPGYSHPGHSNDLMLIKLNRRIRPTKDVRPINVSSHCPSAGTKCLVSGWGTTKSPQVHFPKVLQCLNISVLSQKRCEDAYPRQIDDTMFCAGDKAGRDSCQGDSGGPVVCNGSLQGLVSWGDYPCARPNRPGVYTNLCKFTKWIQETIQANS
Assay type: biochemical
Outline: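 Recombinant human KLK5 (0.1 μg/well) was preincubated with compound at room temperature in 0.1 M NaH2PO4, pH 7.5, 1% DMSO, then started with 100 μM Boc-VPR-AMC. The rate was followed at 380/460 nm, and IC50 came from percent inhibition relative to enzyme alone, with at least three runs.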

Compound | IC50 [nM]
CCC(=O)N1CCC2(CC1)CC(Oc1ccccc1CC(=O)O)c1cc(-c3ccc4ccnc(N)c4c3)ccc12 (stereo not drawn) [Compound 386b, 2-(2-((5-(1-aminoisoquinolin-7-yl)-1′-propionyl-2,3-dihydrospiro[indene-1,4′-piperidin]-3-yl)oxy)phenyl)acetic acid] | < 1000
CCC(=O)N1CCC2(CC1)CC(Oc1cccc(C)c1CC(=O)O)c1cc(-c3cccc4c(N)nccc34)ccc12 (stereo not drawn) [Compound 387c, 2-(2-((5-(1-aminoisoquinolin-5-yl)-1′-propionyl-2,3-dihydrospiro[indene-1,4′-piperidin]-3-yl)oxy)-6-methylphenyl)acetic acid] | < 1000
CC(C)COC(=O)N1CCC2(CC1)CC(Oc1ccccc1CC(=O)O)c1cc(-c3ccc4ccnc(N)c4c3)ccc12 (stereo not drawn) [Compound 389c, 2-(2-((5-(1-aminoisoquinolin-7-yl)-1′-(isobutoxycarbonyl)-2,3-dihydrospiro[indene-1,4′-piperidin]-3-yl)oxy)phenyl)acetic acid] | < 1000
CC(C)COC(=O)N1CCC2(CC1)CC(Oc1ccccc1CC(=O)O)c1cc(-c3cccc4c(N)nccc34)ccc12 (stereo not drawn) [Compound 390b, 2-(2-((5-(1-aminoisoquinolin-5-yl)-1′-(isobutoxycarbonyl)-2,3-dihydrospiro[indene-1,4′-piperidin]-3-yl)oxy)phenyl)acetic acid] | < 1000
Nc1nccc2ccc(-c3ccc4c(c3)C(Oc3ccccc3CC(=O)O)CC43CCCCC3)cc12 (stereo not drawn) [Compound 391b, 2-(2-((5′-(1-aminoisoquinolin-7-yl)-2′,3′-dihydrospiro[cyclohexane-1,1′-inden]-3′-yl)oxy)phenyl)acetic acid] | < 1000
CC(C)(C)OC(=O)N1CCC2(CC1)C[C@H](Oc1ccccc1CC(=O)O)c1cc(-c3cccc4c(N)nccc34)ccc12 [Compound 392f, (S)-2-(2-((5-(1-aminoisoquinolin-5-yl)-1′-(tert-butoxycarbonyl)-2,3-dihydrospiro[indene-1,4′-piperidin]-3-yl)oxy)phenyl)acetic acid] | < 1000
CC(C)(C)OC(=O)N1CCC2(CC1)C[C@H](Oc1ccccc1CC(=O)O)c1cc(-c3ccc4ccnc(N)c4c3)ccc12 [Compound 393b, (S)-2-(2-((5-(1-aminoisoquinolin-7-yl)-1′-(tert-butoxycarbonyl)-2,3-dihydrospiro[indene-1,4′-piperidin]-3-yl)oxy)phenyl)acetic acid] | < 1000
CC(C)(C)OC(=O)N1CCC2(CC1)C[C@@H](Oc1ccccc1CC(=O)O)c1cc(-c3cccc4c(N)nccc34)ccc12 [Compound 394e, (R)-2-(2-((5-(1-aminoisoquinolin-5-yl)-1′-(tert-butoxycarbonyl)-2,3-dihydrospiro[indene-1,4′-piperidin]-3-yl)oxy)phenyl)acetic acid] | < 1000
CC(C)(C)OC(=O)N1CCC2(CC1)C[C@@H](Oc1ccccc1CC(=O)O)c1cc(-c3ccc4ccnc(N)c4c3)ccc12 [Compound 395b, (R)-2-(2-((5-(1-aminoisoquinolin-7-yl)-1′-(tert-butoxycarbonyl)-2,3-dihydrospiro[indene-1,4′-piperidin]-3-yl)oxy)phenyl)acetic acid] | < 1000
COC(=O)N1CCC2(CC1)C[C@@H](Oc1ccccc1CC(=O)O)c1cc(-c3cccc4c(N)nccc34)ccc12 [Compound 398d, (R)-2-(2-((5-(1-aminoisoquinolin-5-yl)-1′-(methoxycarbonyl)-2,3-dihydrospiro[indene-1,4′-piperidin]-3-yl)oxy)phenyl)acetic acid] | < 1000
Nc1nccc2c(-c3ccc4c(c3)C(COc3ccccc3CC(=O)O)=CC43CCCC3)cccc12 [Compound 400f, 2-(2-((5′-(1-aminoisoquinolin-5-yl)spiro[cyclopentane-1,1′-inden]-3′-yl)methoxy)phenyl)acetic acid] | < 1000
CCOC(=O)N1CCC2(CC1)CC(Oc1cccc(C)c1CC(=O)O)c1cc(-c3ccc4ccnc(N)c4c3)ccc12 (stereo not drawn) [Compound 404c, 2-(2-((5-(1-aminoisoquinolin-7-yl)-1′-(ethoxycarbonyl)-2,3-dihydrospiro[indene-1,4′-piperidin]-3-yl)oxy)-6-methylphenyl)acetic acid] | < 1000
CC(=O)N1CCC2(CC1)CC(Oc1cccc(C)c1CC(=O)O)c1cc(-c3ccc4ccnc(N)c4c3)ccc12 (stereo not drawn) [Compound 406c, 2-(2-((1′-acetyl-5-(1-aminoisoquinolin-7-yl)-2,3-dihydrospiro[indene-1,4′-piperidin]-3-yl)oxy)-6-methylphenyl)acetic acid] | < 1000
CC(=O)N1CCC2(CC1)CC(Oc1cccc(C)c1CC(=O)O)c1cc(-c3cccc4c(N)nccc34)ccc12 (stereo not drawn) [Compound 407b, 2-(2-((1′-acetyl-5-(1-aminoisoquinolin-5-yl)-2,3-dihydrospiro[indene-1,4′-piperidin]-3-yl)oxy)-6-methylphenyl)acetic acid] | < 1000
COC(=O)N1CCC2(CC1)CC(Oc1cc(F)ccc1CC(=O)O)c1cc(-c3cccc4c(N)nccc34)ccc12 (stereo not drawn) [Compound 409b, 2-(2-((5-(1-aminoisoquinolin-5-yl)-1′-(methoxycarbonyl)-2,3-dihydrospiro[indene-1,4′-piperidin]-3-yl)oxy)-4-fluorophenyl)acetic acid] | < 1000
COC(=O)N1CCC2(CC1)CC(Oc1cc(C#N)ccc1CC(=O)O)c1cc(-c3ccc4ccnc(N)c4c3)ccc12 (stereo not drawn) [Compound 410d, 2-(2-((5-(1-aminoisoquinolin-7-yl)-1′-(methoxycarbonyl)-2,3-dihydrospiro[indene-1,4′-piperidin]-3-yl)oxy)-4-cyanophenyl)acetic acid] | < 1000

Continued, values first:

IC50 [nM] | Compound
< 1000 | CCC(=O)N1CCC2(CC1)CC(Oc1cccc(C)c1CC(=O)O)c1cc(-c3ccc4ccnc(N)c4c3)ccc12 (stereo not drawn) [Compound 388b, 2-(2-((5-(1-aminoisoquinolin-7-yl)-1′-propionyl-2,3-dihydrospiro[indene-1,4′-piperidin]-3-yl)oxy)-6-methylphenyl)acetic acid]
< 1000 | COC(=O)N1CCC2(CC1)C[C@H](Oc1ccccc1CC(=O)O)c1cc(-c3cccc4c(N)nccc34)ccc12 [Compound 396d, (S)-2-(2-((5-(1-aminoisoquinolin-5-yl)-1′-(methoxycarbonyl)-2,3-dihydrospiro[indene-1,4′-piperidin]-3-yl)oxy)phenyl)acetic acid]
< 1000 | COC(=O)N1CCC2(CC1)C[C@H](Oc1ccccc1CC(=O)O)c1cc(-c3ccc4ccnc(N)c4c3)ccc12 [Compound 397b, (S)-2-(2-((5-(1-aminoisoquinolin-7-yl)-1′-(methoxycarbonyl)-2,3-dihydrospiro[indene-1,4′-piperidin]-3-yl)oxy)phenyl)acetic acid]
< 1000 | COC(=O)N1CCC2(CC1)C[C@@H](Oc1ccccc1CC(=O)O)c1cc(-c3ccc4ccnc(N)c4c3)ccc12 [Compound 399b, (R)-2-(2-((5-(1-aminoisoquinolin-7-yl)-1′-(methoxycarbonyl)-2,3-dihydrospiro[indene-1,4′-piperidin]-3-yl)oxy)phenyl)acetic acid]
< 1000 | Nc1nccc2ccc(-c3ccc4c(c3)C(COc3ccccc3CC(=O)O)=CC43CCCC3)cc12 [Compound 401b, 2-(2-((5′-(1-aminoisoquinolin-7-yl)spiro[cyclopentane-1,1′-inden]-3′-yl)methoxy)phenyl)acetic acid]
1000 to 10000 | Nc1nccc2ccc(-c3ccc4c(c3)C(COc3ccccc3CC(=O)O)CC43CCCC3)cc12 (stereo not drawn) [Compound 402a, 2-(2-((5′-(1-aminoisoquinolin-7-yl)-2′,3′-dihydrospiro[cyclopentane-1,1′-inden]-3′-yl)methoxy)phenyl)acetic acid]
< 1000 | Nc1nccc2c(-c3ccc4c(c3)C(COc3ccccc3CC(=O)O)CC43CCCC3)cccc12 (stereo not drawn) [Compound 403a, 2-(2-((5′-(1-aminoisoquinolin-5-yl)-2′,3′-dihydrospiro[cyclopentane-1,1′-inden]-3′-yl)methoxy)phenyl)acetic acid]
< 1000 | CCOC(=O)N1CCC2(CC1)CC(Oc1cccc(C)c1CC(=O)O)c1cc(-c3cccc4c(N)nccc34)ccc12 (stereo not drawn) [Compound 405b, 2-(2-((5-(1-aminoisoquinolin-5-yl)-1′-(ethoxycarbonyl)-2,3-dihydrospiro[indene-1,4′-piperidin]-3-yl)oxy)-6-methylphenyl)acetic acid]
< 1000 | COC(=O)N1CCC2(CC1)CC(Oc1cc(F)ccc1CC(=O)O)c1cc(-c3ccc4ccnc(N)c4c3)ccc12 (stereo not drawn) [Compound 408f, 2-(2-((5-(1-aminoisoquinolin-7-yl)-1′-(methoxycarbonyl)-2,3-dihydrospiro[indene-1,4′-piperidin]-3-yl)oxy)-4-fluorophenyl)acetic acid]
< 1000 | COC(=O)N1CCC2(CC1)CC(Oc1cc(C#N)ccc1CC(=O)O)c1cc(-c3cccc4c(N)nccc34)ccc12 (stereo not drawn) [Compound 411b, 2-(2-((5-(1-aminoisoquinolin-5-yl)-1′-(methoxycarbonyl)-2,3-dihydrospiro[indene-1,4′-piperidin]-3-yl)oxy)-4-cyanophenyl)acetic acid]
< 1000 | COC(=O)N1CCC2(CC1)CC(Oc1cc(C)ccc1CC(=O)O)c1cc(-c3ccc4ccnc(N)c4c3)ccc12 (stereo not drawn) [Compound 412c, 2-(2-((5-(1-aminoisoquinolin-7-yl)-1′-(methoxycarbonyl)-2,3-dihydrospiro[indene-1,4′-piperidin]-3-yl)oxy)-4-methylphenyl)acetic acid]
